# Assay results published in patent publication US20120289602A1, “PHARMACEUTICAL COMPOSITION FOR TREATING OR PREVENTING BURN INJURIES” (priority 2009, published 2012).
# Key:
# Type in all cases: in vivo
# [1] = test system: contact burn injury on the back of rats; assay: Contact burn injury in rats: animals that died within 7 days; conditions: within 7 days after burn injury, 10 mg/5 ml/kg intravenously, twice a day for 7 days, 7 animals in group
# Experimental: (§1) To confirm the therapeutic effect of 2-hydroxy-TTBA against burn injury, contact burn injury is induced for 30 seconds on the back of rats (on the both side of skin) using a brass comb preheated for 3 minutes in the boiling water (maintaining at 100° C.). After 5 minutes, 2-hydroxy-TTBA 10 mg/5 ml/kg were administered to intravenously for 5 minutes. Since then, twice-a-day administration (at an interval of 10˜12 hours) was sustained for 7 days on the same conditions. The same amount of saline without the compound was administered to the vehicle-treated group in the same manner. Groups of burn experiments were the same as below table 1.
# When analyzing the results, number of animals of the normal group for comparison, number of animals in each group, and the number of animals that died within 7 days after the burn injury were shown in above table 1. Two rats in the burn control group died at 5 and 7 days, respectively, after burn injury, but all of another experimental group survived.
# [2] = test system: contact burn injury on the back of rats; assay: Measurement of lactate dehydrogenase in serum through blood chemistry after burn injury; conditions: 10 mg/5 ml/kg intravenously twice a day, FIG. 1
# Experimental: as §1
# The Measurement of Lactate Dehydrogenase in Serum Through Blood Chemistry
# Lactate dehydrogenase (LDH) is an enzyme distributed to almost all the tissues and catalyzing reversible reactions between pyruvic acid and lactic acid.
# It is known that serum LDH level is elevated when tissues and cells are destroyed. Thus, the amount of LDH was measured in serum samples from each group except hemolyzed samples that may interfere with test results.
# [3] = test system: contact burn injury on the back of rats; assay: Observation of skin appearance on the back after burn injury (zone of stasis); conditions: skin on the back 7 days after burn injury, FIG. 2
# Experimental: as §1
# FIG. 2 is photographs that observed skin on the back 7 days after burn injury. Full thickness burns were induced in the both sides of back of experimental rats using a preheated brass comb with 4 rectangular shapes of size 10×20 mm. At 2 hours after induction, 4 pale-colored or darkish zones of coagulation (or zones of tissue necrosis) and 3 zones of stasis (or zones of tissue injury) appeared on the both sides of back. […]
# Therefore, to evaluate the efficacy in this experiment, among the zone of stasis, the remaining 4 regions (a rectangular area indicated the dotted lines) except regions toward the head close to a medication vest among 6 areas appeared in a single rat were analyzed.
# [4] = test system: contact burn injury on the back of rats; assay: Histology of zone of stasis after burn injury (hematoxylin-eosin, cresyl violet, Masson's trichrom staining)
# Experimental: as §1
# FIG. 3 is the result comparing the state of the epithelial layer through hematoxylin-eosin staining of tissues according to the groups. […] Some cases that hyperplasia of epidermis thicker than normal epithelial layers occurred could be also observed.
# Eschar formation and frequency of wound epidermis formation was measured by analyzing total 28 tissue areas per group (4 zones of stasis per rat, 7 rats per group). As a result, the wound switching frequency of approximately 93% occurred in the burn control group was decreased to about 18% and 4%, respectively, in the veheicle-treated and 2-hydroxy-TTBA-treated groups. Also, the rate of wound epidermis formation was increased by approximately 32% and 72%, respectively, in comparison with the burn control group. The result was shown in the below table 2 (histological appearance: Eschar Formation and frequency of wound epidermis formation).
# FIG. 4 was the photograph that observed the state of tissues of full-thickness skin through hematoxylin-eosin staining via 10× microscope.
# FIG. 5 is the photograph observed the live cells in the zone of stasis by cresyl violet staining via 10× microscope. In the burn control group and the vehicle-treated group, follicles were rarely observed and large amounts of inflammatory cells were observed throughout the full-thickness skin.
# FIG. 6 is the photograph that observed collagen of skin tissues and muscle fibers in the zone of stasis by Masson's trichrom staining. In the normal group, blue-stained collagen was evenly distributed throughout the dermis, and muscle fibers were stained red. In the burn control group, collagen was deposited irregularly below eschar, the level of staining was weak relative to the normal group. Almost of the muscle fibers were damaged and were not stained. In the vehicle-treated group, the amount of collagen was most abundantly observed relative to the other groups, even to a very high level compared to the normal control. In addition, the muscle fibers with damage were not stained, and significant amount of bleeding and infiltration of inflammatory cells were accompanied.
# [5] = 28 tissue areas per group (4 zones of stasis per rat, 7 rats), 7 days after burn
# [6] = zone of stasis, 7 days after burn, FIG. 4
smiles,measurement,setting,value
"O=C(O)c1cc(NCc2c(F)c(F)c(C(F)(F)F)c(F)c2F)ccc1O [2-hydroxy-TTBA, 2-Hydroxy-5-(2,3,5,6-tetrafluoro-4-trifluoromethyl-benzylamino)-benzoic acid]",Number of dead animals,[1],0
same,LDH value in serum compared to burn control group,[2],reduced significantly
same,Skin condition by the naked eye,[3],restored to such a good skin condition that hair growth can be observed by the naked eye
same,Formation of eschar such as scab (skin appearance),[3]; zone of stasis,occurred rarely
same,"rate of wound epidermis formation, increase in comparison with the burn control group",[4]; 28 tissue areas per group,~72%
same,Eschar formation (%),[4]; [5],3.571%
same,Wound epidermis formation (%),[4]; [5],71.429%
same,Eschar formation frequency,"[4]; 28 tissue areas per group, approximately 93% in burn control group",~4%
same,"State of the epithelial layer, hematoxylin-eosin staining",[4]; FIG. 3,wound epidermis formation was in progress
same,"Inflammatory cells in the zone of stasis, cresyl violet staining",[4]; FIG. 5,relatively few inflammatory cells were observed
same,"Live cells in the zone of stasis, cresyl violet staining",[4]; FIG. 5,live follicles and epithelia were observed
same,"Infiltration of inflammatory cells in full-thickness skin, hematoxylin-eosin staining",[4]; [6],considerably inhibited except in the areas of muscle cells and subcutaneous tissues
same,"Protection of skin structures in full-thickness skin, hematoxylin-eosin staining",[4]; [6],"not only a wound epidermis formation but also protective effects even in the hair follicles, sebaceous glands and muscle layers appeared"
